Measured values: patent publication US20230406837A1, “SULFAMATE MODULATORS OF PIN1 ACTIVITY AND USES THEREOF” (Yeda Research and Development Co., Ltd., priority 2022, published 2023)
Entries after “also recorded” stand apart in the source; their conditions may differ.

Legend:
[1] = tested on: Mino cells; experiment: In situ proteomic labeling with alkyne probes, in-gel fluorescence; assay type: cell-based; settings: 2 h
Description: FIGS. 5A-5C: α-sulfamate acetamide 1a-aj, and 2a-2c can show up to two orders of magnitude less reactivity towards GSH than chloroacetamide. FIG. 5A: Chemical structures of model α-sulfamate/sulfonate/sulfone acetamides. FIG. 5B: Half-life (t1/2) of the model compounds (1a-1j) assessed by GSH consumption assay via LC/MS (FIG. 4B). FIG. 5C: In situ proteomic labeling with alkyne probes (2a-2c). […] A band that is selectively detected only by compound 2a is indicated by *.
Sulfamate acetamides show attenuated and tunable proteomic reactivity. To assess proteomic selectivity in cells, two sulfamate acetamides (2a and 2b) and a chloroacetamide (2c) with an alkyne functionality have been synthesized (FIG. 3 and FIG. 4A). Mino cells were treated for two hours with either DMSO or 2a-c. Then, the cells were lysed, labeled the alkynes via copper-catalyzed “click chemistry” (CuAAC) with TAMRA-azide, and imaged the adducts via in-gel fluorescence (FIG. 4C). Similar to their reactivity pattern in the GSH reactivity assay, these compounds labeled various amounts of proteins under cellular conditions.

[2] = Buffer stability assay (hydrolysis by LC/MS); assay type: physicochemical; settings: for hydrolysis in PBS buffer (FIG. 13): 100 μM, pH 8, 37° C. for four days; for hydrolysis in PBS buffer: pH 8, 37° C., after 2 days
Experimental: FIG. 8: Buffer stability of model compounds. […] The percentage of hydrolysis was quantified using LC/MS at a wavelength of 220 nm.
FIG. 13: Sulfonate and sulfamate compounds. […] For compounds Sulfopin, 4a, and 4b, spectra at 220 nm were taken to show the peaks. […] “#” refers to hydrolysis product “*” refers to unidentified peak.
Reaction mixtures were kept at 37° C. with shaking.

[3] = molecular target: T1, Pin1 (Homo sapiens, UniProt Q13526); experiment: In-vitro Pin1 covalent labeling by intact protein LC/MS; assay type: binding; design: The catalytic domain of Pin1 (2 μM) in 20 mM Tris, 75 mM NaCl, pH 7.5 was incubated with 2 μM Sulfamate; made in house; settings: 2 μM compound, 2 μM Pin1, pH 7.5, 1 h, 25° C.
Experimental: Pin1 was expressed and purified as previously reported^38. The catalytic domain of Pin1 (2 μM) in 20 mM Tris, 75 mM NaCl, pH 7.5 was incubated with 2 μM Sulfamate (4a-4g) for 1 h at 25° C.
The reaction mixtures, at room temperature for various times, were injected into the LC/MS. For data analysis, the raw spectra were deconvoluted using a 20000:40000 Da (For Pin1, 10000:30000) window and 1 Da resolution. The labeling percentage for a compound was determined as the labeling of a specific compound (alone or together with other compounds) divided by the overall detected protein species.
Initially, these compounds (4a-4g; 2 μM) were incubated with Pin1 (2 μM; […] Tris buffer; pH 7.5, 1 h; 25° C.) to check covalent labeling by intact protein MS (FIG. 11B,C; FIG. 10).
Target sequence in this assay (Q13526 52-163 limits assumed): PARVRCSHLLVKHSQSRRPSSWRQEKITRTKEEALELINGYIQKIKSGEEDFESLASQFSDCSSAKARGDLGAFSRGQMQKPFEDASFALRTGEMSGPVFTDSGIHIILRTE

[4] = GSH consumption (reactivity) assay by LC/MS; settings: for reactivity to GSH relative to chloroacetamide (1a): 5 mM GSH, 200 μM electrophile, pH 8, 14° C.; for covalent bond formation with GSH: assay conditions or temperatures up to 37° C. for 24 h
[5] = DTNB thiol reactivity assay; assay type: physicochemical; settings: 200 μM compound, pH 7.4, 37° C.
Experimental: The compound 5,5′-dithio-bis(2-nitrobenzoic acid) (DTNB; 50 μM) was incubated with 200 μM tris(2-carboxyethyl)phosphine (TCEP) in 20 mM sodium phosphate buffer pH 7.4 and 150 mM NaCl for 5 min at room temperature, to obtain TNB^−2. […] UV absorbance was acquired every 15 min for 7 h. The assay was performed in a 384-well plate using a Tecan Spark 10M plate reader. […] Compounds were measured in triplicate. The data were fitted to a second-order reaction equation such that the rate constant (K) is the slope of ln([A][B0]/[B][A0]), where [A0] and [B0] are the initial concentrations of the compound (200 μM) and TNB^−2 (100 μM), respectively, and [A] and [B] are the remaining concentrations as a function of time as deduced from spectrometric measurements. Linear regression using Prism was performed to fit the rate against the first 7 h of measurements.

[6] = molecular target: T2, Pin1 Cys113 (Homo sapiens, UniProt Q13526); experiment: Competitive isoTOP-ABPP in PATU-8988T cells; assay type: cell-based; settings: for peptides labeled with an H/L ratio >2: out of about 3,000 cysteines identified
T2 construct: endogenous in cells
T2 sequence (Q13526 whole entry): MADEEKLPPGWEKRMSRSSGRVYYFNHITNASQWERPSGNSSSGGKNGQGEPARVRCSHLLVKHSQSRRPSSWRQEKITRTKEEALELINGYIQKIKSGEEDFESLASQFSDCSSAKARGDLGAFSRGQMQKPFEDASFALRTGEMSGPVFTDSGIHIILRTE
Experimental: FIGS. 11A-11E: Sulfamate acetamides as potent and selective Pin1 inhibitors. FIG. 11A. Chemical structures of the sulfonate and sulfamate compounds (4a-4g). FIG. 11B. Deconvoluted LC/MS spectrum for Pin1 (2 μM) incubated with 4 g at pH 7.5, 25° C., 1 h. The adduct mass corresponds to a labeling event in which the sulfamate group was released. FIG. 11C. Percent of Pin1 labeling (2 μM) with the probes (4a-4g; 2 μM; y-axis) compared to their intrinsic thiol reactivity as assessed by their rate of reaction in a DTNB assay (x-axis). FIG. 11D. Cellular engagement of the Sulfamates. OCI-AML2 cells were treated with DMSO, Sulfopin or sulfamate compounds (4c, 4d, 4g) at 0.5 and 2.5 μM concentration for 4 hours. Lysates were then incubated with a Sulfopin desthiobiotin (DTB) probe (1 μM), pulled down using streptavidin beads before running a western blot against Pin1. FIG. 11E. IsoDTB ABPP experiment with sulfopin and sulfamate compound 4d. […] The labeled peptides were pull-down with streptavidin beads and analysed by LC/MS/MS (similar protocol to BTK, see FIG. 521; n=4). Proteins in the box have a heavy to light (H/L) ratio ≥2. Only peptides detected in three out of four repetitions are presented.

[7] = molecular target: T1, Pin1; experiment: Kinetics of Pin1 binding (KI and Kinact) by LC-MS; design: made in house; kinact: unit not given here; settings: for Ki: read-out: K1 value (KI)
Description: The reaction was monitored by LC-MS. FIGS. 17B and 17D. The rate constants as extrapolated from FIGS. 17A and 17C, respectively, as a function of the concentration of sulfopin and 4d.
Target sequence in this assay (Q13526 whole entry, the tested form may be a part): as the sequence (Q13526 whole entry) above

[8] = Metabolic stability in liver microsomes; assay type: in vitro ADME; settings: LC/MS/MS
Experimental: FIG. 14: Sulfamates compounds show high metabolic stability. Compounds (Sulfopin, 4d, 4e, and 4g) were incubated in liver microsomes and injected to LC/MS/MS at indicated time points. The peak intensities of the compounds were measured in UV spectra.

[9] = Pin1 0.5 μM, 100 mM Tris buffer pH 7.4, 14° C.

C#Cc1ccc(NC(=O)COS(=O)(=O)NCc2ccccc2)cc1 [Compound 2a, 2-((4-ethynylphenyl)amino)-2-oxoethyl Benzylsulfamate]
proteomic reactivity (proteins labeled) [1]: enriching more proteins; also recorded: labeled a distinct protein that was not labeled by the chloroacetamide

C#Cc1ccc(NC(=O)COS(=O)(=O)Nc2ccccc2)cc1 [Compound 2b, 2-((4-ethynylphenyl)amino)-2-oxoethyl Phenylsulfamate]
proteomic reactivity (proteins labeled) [1]: low reactivity

CC(C)(C)CN(C(=O)COS(C)(=O)=O)C1CCS(=O)(=O)C1 (centres unmarked) [Compound 4a, 2-((1,1-dioxidotetrahydrothiophen-3-yl)(neopentyl)amino)-2-oxoethyl Methanesulfonate]
hydrolysis in PBS buffer (FIG. 13) [2]: 15%
hydrolysis in PBS buffer [2]: 15%
Pin1 labeling by intact protein MS [3]: 18%

CNS(=O)(=O)OCC(=O)NCc1ccccc1 [Compound 1d, 2-(benzylamino)-2-oxoethyl Methylsulfamate]
reactivity to GSH relative to chloroacetamide (1a) [4]: an order of magnitude less reactivity

CNS(=O)(=O)OCC(=O)N(CC(C)(C)C)C1CCS(=O)(=O)C1 (centres unmarked) [Compound 4b, 2-((1,1-dioxidotetrahydrothiophen-3-yl)(neopentyl)amino)-2-oxoethyl Methylsulfamate]
Pin1 labeling by intact protein MS [3]: 16%

O=C(CS(=O)(=O)c1ccccc1)NCc1ccccc1 [Compound 1j, N-benzyl-2-(phenylsulfonyl)acetamide]
covalent bond formation with GSH [4]: did not form a covalent bond with GSH

CS(=O)(=O)CC(=O)NCc1ccccc1 [Compound 1i, N-benzyl-2-(methylsulfonyl)acetamide]
covalent bond formation with GSH [4]: did not form a covalent bond with GSH

CC(C)(C)CN(C(=O)COS(=O)(=O)Nc1ccc(Br)cc1)C1CCS(=O)(=O)C1 (centres unmarked) [Compound 4e, 2-((1,1-dioxidotetrahydrothiophen-3-yl)(neopentyl)amino)-2-oxoethyl (4-bromophenyl)sulfamate]
thiol reactivity relative to Sulfopin [5]: lower thiol reactivity than Sulfopin

C#Cc1ccc(NC(=O)CCl)cc1 [Compound 2c, 2-chloro-N-(4-ethynylphenyl)acetamide]
proteomic reactivity (proteins labeled) [1]: enriching more proteins

CC(C)(C)CN(C(=O)COS(=O)(=O)Nc1ccccc1)C1CCS(=O)(=O)C1 (centres unmarked) [Compound 4d, 2-((1,1-dioxidotetrahydrothiophen-3-yl)(neopentyl)amino)-2-oxoethyl Phenylsulfamate]
thiol reactivity relative to Sulfopin [5]: lower thiol reactivity than Sulfopin
competition ratio (H/L) of Pin1 Cys113 [6]: highest competition ratio
peptides labeled with an H/L ratio >2 [6]: six
binding affinity to Pin1 relative to sulfopin ([7]; KI of 4d versus sulfopin): five-times better K1 value; also recorded: five-fold higher binding affinity
kinact [7, 9]: 2.48
Ki [7, 9]: 43.6 µM

CC(C)(C)CN(C(=O)COS(=O)(=O)NCc1ccccc1)C1CCS(=O)(=O)C1 (centres unmarked) [Compound 4c, 2-((1,1-dioxidotetrahydrothiophen-3-yl)(neopentyl)amino)-2-oxoethyl Benzylsulfamate]
thiol reactivity relative to Sulfopin [5]: lower thiol reactivity than Sulfopin
Pin1 labeling by intact protein MS [3]: 56%

O=C(COS(=O)(=O)Nc1ccccc1)N(CC1CCCCC1)C1CCS(=O)(=O)C1 (centres unmarked) [Compound 4g, 2-((cyclohexylmethyl)(1,1-dioxidotetrahydrothiophen-3-yl)amino)-2-oxoethyl Phenylsulfamate]
thiol reactivity relative to Sulfopin [5]: slightly higher reactivity
Pin1 labeling by intact protein MS [3]: > 95%

CC(C)(C)CN(C(=O)CCl)C1CCS(=O)(=O)C1 (centres unmarked) [Sulfopin, reference compound]
hydrolysis in PBS buffer (FIG. 13) [2]: 30%
hydrolysis in PBS buffer [2]: 30%
competition ratio (H/L) of Pin1 Cys113 [6]: highest competition ratio; also recorded: more complete target engagement
peptides labeled with an H/L ratio >2 [6]: six
metabolic stability [8]: good metabolic stability
Ki [7, 9]: 217 µM
Pin1 labeling by intact protein MS [3]: 59%

O=C(COS(=O)(=O)NCc1ccccc1)NCc1ccccc1 [Compound 1e, 2-(benzylamino)-2-oxoethyl Benzylsulfamate]
reactivity to GSH relative to chloroacetamide (1a) [4]: an order of magnitude less reactivity
